The values that follow come from publication PMC3579935, “High-Throughput Screening for Growth Inhibitors Using a Yeast Model of Familial Paraganglioma” (PLoS ONE, 2013).

Molecules are shown by their SMILES. Like-named read-outs stand apart in the source and are kept apart here.

In this assay the target is T1, yeast alcohol dehydrogenase (Saccharomyces cerevisiae, UniProt P00330).
T1 construct: gene ADH1
T1 sequence (P00330 2-348): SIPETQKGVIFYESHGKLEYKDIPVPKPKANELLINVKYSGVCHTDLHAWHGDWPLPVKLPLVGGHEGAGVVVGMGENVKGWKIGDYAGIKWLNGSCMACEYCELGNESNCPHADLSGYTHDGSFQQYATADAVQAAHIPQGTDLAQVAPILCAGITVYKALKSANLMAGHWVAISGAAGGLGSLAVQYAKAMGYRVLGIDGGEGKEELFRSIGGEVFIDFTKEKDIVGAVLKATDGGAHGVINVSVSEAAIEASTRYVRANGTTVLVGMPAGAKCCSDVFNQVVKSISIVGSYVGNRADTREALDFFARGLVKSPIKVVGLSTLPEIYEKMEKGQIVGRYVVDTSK
Description: NADH absorbance ([…] nm) enzyme assay of acetaldehyde reduction, 8-point dose response. Type of assay: biochemical.

For `CC(=O)c1ccc(O)c2c1C1C=CCC1C(c1ccc(Cl)cc1)N2` (stereo not shown) [compound 7172827, 7172827], the IC50 (read-out: IC50 yADH ^c) is 25.6 µM.

The compound `C#CCOc1c(Cl)cc(/C=C/[N+](=O)[O-])cc1OC` [compound 7312219, 7312219] showed an IC50 of 3.8 µM.

For the compound `COc1cc(C)c(/C=C/[N+](=O)[O-])cc1C(C)C` [compound 7279172, 7279172], half-maximal inhibition (IC50) required 12.7 µM.

For the compound `COc1ccc(/C=C/[N+](=O)[O-])cc1Br` [compound 7241889, 7241889], half-maximal inhibition (IC50) was put at 1.3 µM.

Broadly, the IC50 is the midpoint of a concentration-inhibition curve.
